According to US4950669A, “Methods and compositions for promoting growth of animals” (priority 1987, dated 1990):

Assays:
[1] = 70-day lamb study, oral or i.m. injection (Example XVII); format: in vivo, lambs
Procedure: A 70-day study was conducted in which N-morpholinyl-β-benzoyl-propionamide was administered to lambs by i.m. injection or by admixture with feed. In the case of oral administration, the N-morpholinyl-β-benzoyl-propionamide was mixed with the complete mixed ration at a level of 30 ppm.

[2] = organ weight variations in the rat after per os treatment; format: in vivo; details: 300 mg/kg per os
[3] = rabbit, in vivo, ip, 100 mg/kg
[4] = battery study in chickens (Example XVI); format: in vivo; details: for Mortality: unmedicated 1.1
Procedure: A battery study was conducted in which N-morpholinyl-β-benzoyl-propionamide was administered to chickens in their feed at levels at 2.5 ppm and 5.0 ppm. The control group was unmedicated. Each medicated treatment had 10 replications of 8 birds per replication, with non-medicated controls having 20 replications of 8 birds per replication. Birds were weighed to determine weight gain and feed-to-gain ratio on days 7, 14 and 21.

[5] = pig growth study, intramuscular injection (Example X); format: in vivo; details: pigs, 1 mg/kg i.m. every seven days
Procedure: N-morpholinyl-β-benzoylpropionamide (NMBP) was formulated as an injectable product at a concentration of 2% in polyethylene glycol. The formulation was administered to pigs by intramuscular injection at a dosage of 1 mg/kg, once every seven days. Pigs averaged 52.66 kg at initiation and were terminated at 90.8 kg. Control animals received no injections.

[6] = 44-day floor-pen study in chickens (Example XV); format: in vivo; details: 44 days
Source text: There were 60 chickens per replication, 3 replications per treatment. One group of controls was unmedicated, while a second control group received Bacitracin in the feed at 30 g/ton.

[7] = hypotensive effect in the awake rabbit; format: in vivo; details: same dosage (100 mg/kg) i.p.
[8] = rat, in vivo, ip, 50 mg/kg
Procedure: Per os, in the mouse still, the LD50 is above 2000 mg/kg. In the rat, after i.p. treatment with 50 mg/kg there was, within 3 hours from administration, a maximum lowering of the body temperature of 0.6° in respect to the controls treated with the only suspending medium.

[9] = Injection, 1.5 mg/kg i.m. every 2 weeks
[10] = Injection, 1.5 mg/kg i.m. every 2 weeks, Day 0-14
[11] = Injection, 1.5 mg/kg i.m. every 2 weeks, Day 0-28
[12] = Injection, 1.5 mg/kg i.m. every 2 weeks, Day 0-42
[13] = Injection, 1.5 mg/kg i.m. every 2 weeks, Day 0-56
[14] = Injection, 1.5 mg/kg i.m. every 2 weeks, Day 0-70
[15] = Injection, 1.5 mg/kg i.m. every 2 weeks, Day 15-28
[16] = Injection, 1.5 mg/kg i.m. every 2 weeks, Day 29-42
[17] = Injection, 1.5 mg/kg i.m. every 2 weeks, Day 43-56
[18] = Injection, 1.5 mg/kg i.m. every 2 weeks, Day 57-70

For `O=C(CCC(=O)N1CCOCC1)c1ccccc1` [NMBP, N-morpholinyl-β-benzoyl-propionamide], the “weight loss of one lamb” value ([1]; Injection group, during the previous 2-week period, sacrificed on Day 55) was 10 pounds, the “Necropsy of one lamb” value ([1]; Injection group, one lamb sacrificed on Day 55) was “chronic focal pneumonia” and the “Daily Gain, Period” value [1, 9] was “.16 kilograms”. The “Weight, Final” value [1, 9] was 42.1 kilograms, the “Weight, Initial” value ([1]; Injection, 1.5 mg/kg i.m. every 2 weeks (baseline)) was 27.6 kilograms and the “Daily Feed DM Consumption, Cumulative” value [1, 10] was 0.94 kilograms. For the same compound, the “Daily Feed DM Consumption, Period” value [1, 10] was 0.94 kilograms, the “Daily Gain, Cumulative” value [1, 10] was “.23 kilograms” and the “Daily Gain, Period” value [1, 10] was “.23 kilograms”. For the same compound, the “Feed DM/Gain, Cumulative” value [1, 10] was 4.09, the “Feed DM/Gain, Period” value [1, 10] was 4.09 and the “Daily Feed DM Consumption, Cumulative” value [1, 11] was 1.00 kilograms. The “Daily Gain, Cumulative” value [1, 11] was “.22 kilograms”, the “Feed DM/Gain, Cumulative” value [1, 11] was 4.55 and the “Daily Feed DM Consumption, Cumulative” value [1, 12] was 1.05 kilograms. For the same compound, the “Daily Gain, Cumulative” value [1, 12] was “.22 kilograms”, the “Feed DM/Gain, Cumulative” value [1, 12] was 4.77 and the “Daily Feed DM Consumption, Cumulative” value [1, 13] was 1.06 kilograms. For the same compound, the “Daily Gain, Cumulative” value [1, 13] was “.22 kilograms”, the “Feed DM/Gain, Cumulative” value [1, 13] was 4.82 and the “Daily Feed DM Consumption, Cumulative” value [1, 14] was 1.11 kilograms. For the same compound, the “Daily Gain, Cumulative” value [1, 14] was “.21 kilograms”, the “Feed DM/Gain, Cumulative” value [1, 14] was 5.29 and the “Daily Feed DM Consumption, Period” value [1, 15] was 1.06 kilograms. The “Daily Gain, Period” value [1, 15] was “.21 kilograms”, the “Feed DM/Gain, Period” value [1, 15] was 5.05 and the “Daily Feed DM Consumption, Period” value [1, 16] was 1.14 kilograms. The “Daily Gain, Period” value [1, 16] was “.22 kilograms”, the “Feed DM/Gain, Period” value [1, 16] was 5.18 and the “Daily Feed DM Consumption, Period” value [1, 17] was 1.12 kilograms. The “Daily Gain, Period” value [1, 17] was “.22 kilograms”, the “Feed DM/Gain, Period” value [1, 17] was 5.09 and the “Daily Feed DM Consumption, Period” value [1, 18] was 1.29 kilograms. For the same compound, the “Feed DM/Gain, Period” value [1, 18] was 8.06, the “Daily Gain, Period” value ([1]; Oral, 30 ppm) was “.14 kilograms” and the “Weight, Final” value ([1]; Oral, 30 ppm) was 43.0 kilograms. The “Weight, Initial” value ([1]; Oral, 30 ppm (baseline)) was 28.1 kilograms, the “Daily Feed DM Consumption, Cumulative” value ([1]; Oral, 30 ppm, Day 0-14) was 1.05 kilograms and the “Daily Feed DM Consumption, Period” value ([1]; Oral, 30 ppm, Day 0-14) was 1.05 kilograms. The “Daily Gain, Cumulative” value ([1]; Oral, 30 ppm, Day 0-14) was “.27 kilograms”, the “Daily Gain, Period” value ([1]; Oral, 30 ppm, Day 0-14) was “.27 kilograms” and the “Feed DM/Gain, Cumulative” value ([1]; Oral, 30 ppm, Day 0-14) was 3.89. The “Feed DM/Gain, Period” value ([1]; Oral, 30 ppm, Day 0-14) was 3.89, the “Daily Feed DM Consumption, Cumulative” value ([1]; Oral, 30 ppm, Day 0-28) was 1.10 kilograms and the “Daily Gain, Cumulative” value ([1]; Oral, 30 ppm, Day 0-28) was “.24 kilograms”. The “Feed DM/Gain, Cumulative” value ([1]; Oral, 30 ppm, Day 0-28) was 4.58, the “Daily Feed DM Consumption, Cumulative” value ([1]; Oral, 30 ppm, Day 0-42) was 1.12 kilograms and the “Daily Gain, Cumulative” value ([1]; Oral, 30 ppm, Day 0-42) was “.23 kilograms”. The “Feed DM/Gain, Cumulative” value ([1]; Oral, 30 ppm, Day 0-42) was 4.87, the “Daily Feed DM Consumption, Cumulative” value ([1]; Oral, 30 ppm, Day 0-56) was 1.14 kilograms and the “Daily Gain, Cumulative” value ([1]; Oral, 30 ppm, Day 0-56) was “.23 kilograms”. For the same compound, the “Feed DM/Gain, Cumulative” value ([1]; Oral, 30 ppm, Day 0-56) was 4.96, the “Daily Feed DM Consumption, Cumulative” value ([1]; Oral, 30 ppm, Day 0-70) was 1.16 kilograms and the “Daily Gain, Cumulative” value ([1]; Oral, 30 ppm, Day 0-70) was “.21 kilograms”. The “Feed DM/Gain, Cumulative” value ([1]; Oral, 30 ppm, Day 0-70) was 5.52, the “Daily Feed DM Consumption, Period” value ([1]; Oral, 30 ppm, Day 15-28) was 1.16 kilograms and the “Daily Gain, Period” value ([1]; Oral, 30 ppm, Day 15-28) was “.20 kilograms”. The “Feed DM/Gain, Period” value ([1]; Oral, 30 ppm, Day 15-28) was 5.80, the “Daily Feed DM Consumption, Period” value ([1]; Oral, 30 ppm, Day 29-42) was 1.17 kilograms and the “Daily Gain, Period” value ([1]; Oral, 30 ppm, Day 29-42) was “.22 kilograms”. For the same compound, the “Feed DM/Gain, Period” value ([1]; Oral, 30 ppm, Day 29-42) was 5.32, the “Daily Feed DM Consumption, Period” value ([1]; Oral, 30 ppm, Day 43-56) was 1.19 kilograms and the “Daily Gain, Period” value ([1]; Oral, 30 ppm, Day 43-56) was “.23 kilograms”. For the same compound, the “Feed DM/Gain, Period” value ([1]; Oral, 30 ppm, Day 43-56) was 5.17, the “Daily Feed DM Consumption, Period” value ([1]; Oral, 30 ppm, Day 57-70) was 1.26 kilograms and the “Feed DM/Gain, Period” value ([1]; Oral, 30 ppm, Day 57-70) was 9.00. For the same compound, the “organ weight variation, suprarenal gland” value ([2]; controls +0.011) was “+0.011%”, the “organ weight variation, heart” value ([2]; controls +0.257) was “+0.304%” and the “organ weight variation, lung” value ([2]; controls +0.598) was “+0.675%”. The “organ weight variation, kidney” value ([2]; controls +0.65) was “+0.71%”, the “organ weight variation, liver” value ([2]; controls +3.22) was “+3.63%” and the “electrocardiographic variations compared to the controls” value [3] was “no electrocardiographic variations”. For the same compound, the “Feed Conversion” value ([4]; feed 2.5 ppm, D + 7) was 1.67, the “Weight Gain” value ([4]; feed 2.5 ppm, D + 7) was 256 g and the “Feed Conversion” value ([4]; feed 2.5 ppm, D + 14) was 1.98. For the same compound, the “Weight Gain” value ([4]; feed 2.5 ppm, D + 14) was 526 g, the “Feed Conversion” value ([4]; feed 2.5 ppm, D + 21) was 1.70 and the “Weight Gain” value ([4]; feed 2.5 ppm, D + 21) was 1075 g. The Mortality ([4]; feed 2.5 ppm) was 1.4, the “Feed Conversion” value ([4]; feed 5.0 ppm, D + 7) was 1.65 and the “Weight Gain” value ([4]; feed 5.0 ppm, D + 7) was 262 g. The “Feed Conversion” value ([4]; feed 5.0 ppm, D + 14) was 2.02, the “Weight Gain” value ([4]; feed 5.0 ppm, D + 14) was 523 g and the “Feed Conversion” value ([4]; feed 5.0 ppm, D + 21) was 1.71. The “Weight Gain” value ([4]; feed 5.0 ppm, D + 21) was 1027 g, the Mortality ([4]; feed 5.0 ppm) was “.8” and the “improvement of average daily gain as compared with controls” value [5] was “about 10%”. The “improvement of feed-to-gain ratio as compared with controls” value [5] was “about 4%”, the “average daily gain (ADG)” value ([5]; control 0.867) was 0.958 kg and the “average daily feed consumption (ADF)” value ([5]; control 2.76) was 2.96 kg. For the same compound, the “feed-to-gain ratio (F/G)” value ([5]; control 3.18) was 3.03, the “Average Live Bird Weight” value ([6]; feed 1.0 ppm) was 2.13 kg and the “Feed Conversion” value ([6]; feed 1.0 ppm) was 1.72. The “Average Live Bird Weight” value ([6]; feed 2.5 ppm) was 2.14 kg, the “Feed Conversion” value ([6]; feed 2.5 ppm) was 1.73 and the “Average Live Bird Weight” value ([6]; feed 5 ppm) was 2.08 kg. For the same compound, the “Feed Conversion” value ([6]; feed 5 ppm) was 1.75, the “Average Live Bird Weight” value ([6]; feed 10 ppm) was 2.14 kg and the “Feed Conversion” value ([6]; feed 10 ppm) was 1.72. The “Average Live Bird Weight” value ([6]; feed 20 ppm) was 2.12 kg, the “Feed Conversion” value ([6]; feed 20 ppm) was 1.72 and the “Average Live Bird Weight” value ([6]; feed 40 ppm) was 2.10 kg. For the same compound, the “Feed Conversion” value ([6]; feed 40 ppm) was 1.75, the “Average Live Bird Weight” value ([6]; feed 60 ppm) was 2.14 kg and the “Feed Conversion” value ([6]; feed 60 ppm) was 1.75. The hypotensive effect [7] was “not hypotensive” and the “maximum lowering of the body temperature in respect to the controls” value [8] was 0.6 °.
